Values quoted from earlier work as cited in patent publication US8809326B2, “Isoquinolinone Rho kinase inhibitors” (Aerie Pharmaceuticals, Inc., priority 2006, dated 2014).

Legend:
[1] = porcine, IL-1 beta-induced, long term treatment
[2] = rat stroke model

Question: With `O=S(=O)(c1cccc2cnccc12)N1CCCNCC1` [fasudil] as the compound, how does the coronary constrictive remodeling [1] read?
Answer: Its coronary constrictive remodeling is “promote a regression of coronary constrictive remodeling”.

Question: And the coronary stenosis [1]?
Answer: The coronary stenosis was “progressively reduce coronary stenosis”.

Question: What about the infarct size [2] of the same compound?
Answer: Its infarct size is “reduce”.

Question: What about the neurologic deficit [2] of the same compound?
Answer: Its neurologic deficit is “reduce”.
